Measured values published in ChEMBL document CHEMBL1154459, “Synthesis and evaluation of a series of benzopyran derivatives as PPAR alpha/gamma agonists” (Eur J Med Chem, 2008).
Active and inactive are the calls of the source. The calls are words filed in the database; no cut-off is given here.

How the values were obtained:
[1] = target: T1, Peroxisome proliferator-activated receptor alpha (Homo sapiens) (UniProt Q07869); assay: Agonist activity at human PPARalpha in U2OS cells by transactivation assay relative to WY-14643; assay type: functional, cell-based
T1 sequence (whole entry): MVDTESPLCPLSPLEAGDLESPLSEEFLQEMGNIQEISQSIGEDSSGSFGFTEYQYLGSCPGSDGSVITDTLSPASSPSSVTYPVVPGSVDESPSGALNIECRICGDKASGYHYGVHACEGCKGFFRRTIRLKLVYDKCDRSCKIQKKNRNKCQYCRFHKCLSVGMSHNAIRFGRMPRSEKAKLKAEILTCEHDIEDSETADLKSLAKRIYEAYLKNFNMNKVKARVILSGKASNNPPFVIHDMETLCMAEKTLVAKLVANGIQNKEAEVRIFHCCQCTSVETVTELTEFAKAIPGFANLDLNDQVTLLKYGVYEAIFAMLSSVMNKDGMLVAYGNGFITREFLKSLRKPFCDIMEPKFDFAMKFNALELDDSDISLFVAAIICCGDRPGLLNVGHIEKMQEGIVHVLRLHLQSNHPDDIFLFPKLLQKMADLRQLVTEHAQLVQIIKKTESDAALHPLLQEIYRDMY

[2] = target: T2, Peroxisome proliferator-activated receptor alpha (Homo sapiens, UniProt Q07869); assay: Agonist activity at human PPARalpha in U2OS cells by transactivation assay
T2 sequence (Q07869 whole entry): T1 sequence (whole entry)

[3] = target: T3, Peroxisome proliferator-activated receptor gamma (Homo sapiens, UniProt P37231)
T3 sequence (P37231 whole entry): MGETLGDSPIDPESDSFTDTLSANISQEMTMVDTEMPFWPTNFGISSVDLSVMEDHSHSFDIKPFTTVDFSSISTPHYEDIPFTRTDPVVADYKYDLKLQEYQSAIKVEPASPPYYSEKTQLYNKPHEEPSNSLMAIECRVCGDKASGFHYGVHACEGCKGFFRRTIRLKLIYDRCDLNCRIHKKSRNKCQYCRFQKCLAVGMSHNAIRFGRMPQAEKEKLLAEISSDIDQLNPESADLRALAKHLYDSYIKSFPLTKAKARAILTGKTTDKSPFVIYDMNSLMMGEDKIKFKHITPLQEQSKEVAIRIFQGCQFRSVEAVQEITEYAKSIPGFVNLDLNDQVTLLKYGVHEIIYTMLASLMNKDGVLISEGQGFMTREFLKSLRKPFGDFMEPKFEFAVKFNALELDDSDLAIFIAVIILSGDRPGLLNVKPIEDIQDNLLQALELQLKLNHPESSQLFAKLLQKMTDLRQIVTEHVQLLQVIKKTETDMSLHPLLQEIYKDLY
Description: Agonist activity at human PPARgamma in U2OS cells by transactivation assay

Row | SMILES | %max [1] | EC50 [2] [nM] | EC50 [3] [nM] | EC50 ([2]; u2os)
1 | Cc1cccc(Nc2cc(Cl)nc(SCC(=O)O)n2)c1C | 100% | – | – | –
2 | COC(=O)C1Cc2ccc(OCCc3nc(-c4cccc(OC)c4)oc3C)cc2OC1=O (stereo unspecified) | 23% | 1200 | 100 | –
3 | COC(=O)c1cc2ccc(OCCc3nc(-c4ccc(C(C)(C)C)cc4)oc3C)cc2oc1=O | 90% | 2290 | 1740 | –
4 | COC(=O)c1cc2ccc(OCCc3nc(-c4cccc(F)c4)oc3C)cc2oc1=O | 38% | 1290 | 960 | –
5 | COC(=O)c1cc2ccc(OCCc3nc(-c4ccc(-c5ccccc5)cc4)oc3C)cc2oc1=O | 116% | 1230 | 1260 | –
6 | COC(=O)C1Cc2ccc(OCCc3nc(-c4ccc(F)cc4)oc3C)cc2OC1=O (stereo unspecified) | 98% | 100 | 1 | –
7 | COC(=O)C1Cc2ccc(OCCc3nc(-c4ccc(C(C)(C)C)cc4)oc3C)cc2OC1=O (stereo unspecified) | 26% | 100 | 250 | –
8 | COC(=O)C1Cc2ccc(OCCc3nc(-c4ccccc4)oc3C)cc2OC1=O (stereo unspecified) | 42% | 140 | 130 | –
9 | COC(=O)c1cc2ccc(OCCc3nc(-c4ccc(F)cc4)oc3C)cc2oc1=O | 44% | 70 | 1620 | –
10 | COC(=O)c1cc2ccc(OCCc3nc(-c4cccc([N+](=O)[O-])c4)oc3C)cc2oc1=O | inactive | – | 3550 | Not Active
11 | COC(=O)c1cc2ccc(OCCc3nc(-c4cccc(C(F)(F)F)c4)oc3C)cc2oc1=O | 21% | 1200 | 420 | –
12 | COC(=O)c1cc2ccc(OCCc3nc(-c4cccc(OC)c4)oc3C)cc2oc1=O | 100% | 1620 | 350 | –
13 | COC(=O)C1Cc2ccc(OCCc3nc(-c4ccc(-c5ccccc5)cc4)oc3C)cc2OC1=O (stereo unspecified) | 68% | 910 | 1120 | –
14 | COC(=O)c1cc2ccc(OCCc3nc(-c4cccc(C)c4)oc3C)cc2oc1=O | inactive | – | 1 | Not Active
15 | COC(=O)C1Cc2ccc(OCCc3nc(-c4ccc(OC)cc4)oc3C)cc2OC1=O (stereo unspecified) | 96% | 1740 | 1 | –
16 | COC(=O)c1cc2ccc(OCCc3nc(-c4ccc(OC)cc4)oc3C)cc2oc1=O | 163% | 5250 | 1 | –
17 | COC(=O)c1cc2ccc(OCCc3nc(-c4ccc(C)cc4)oc3C)cc2oc1=O | 65% | 1 | 1 | –
18 | COC(=O)C1Cc2ccc(OCCc3nc(-c4cccc(F)c4)oc3C)cc2OC1=O (stereo unspecified) | 30% | 720 | 170 | –
19 | COC(=O)C1Cc2ccc(OCCc3nc(-c4cccc(C(F)(F)F)c4)oc3C)cc2OC1=O (stereo unspecified) | 23% | 170 | 160 | –
20 | COC(=O)C1Cc2ccc(OCCc3nc(-c4cccc(C)c4)oc3C)cc2OC1=O (stereo unspecified) | 83% | 1550 | 1 | –
21 | COC(=O)C1Cc2ccc(OCCc3nc(-c4ccc(C)cc4)oc3C)cc2OC1=O (stereo unspecified) | 94% | 910 | 1 | –
